Like-named read-outs stand apart in the source and are kept apart here.
Columns and labels:
Assay type in all cases: cell-based
[1] = tested on: human TNF-α; test: Inhibition of TNF-α production by stimulated human peripheral blood leukocytes in vitro (ELISA); conditions: Homo sapiens, Leukocyte, PBL, read-out: Percentage of inhibition of TNF-α production; for inhibition at 10 µM: compound 10 μM; for inhibition at 50 µM: compound 50 μM
In short: (§1)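 Human PBL from healthy donors preincubated 2 h at 37 °C with compound, then stimulated overnight with 2 μg/mL LPS, 1 μg/mL PMA or 120 μg/mL zymosan. Supernatant cytokines measured by sandwich ELISA. % inhibition is relative to stimulated, untreated cells.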

[2] = tested on: human IL-1β; test: Inhibition of IL-1β production by stimulated human peripheral blood leukocytes in vitro (ELISA); conditions: Homo sapiens, Leukocyte, PBL, read-out: Percentage of inhibition of IL-1β production; for inhibition at 10 µM: compound 10 μM; for inhibition at 50 µM: compound 50 μM
In short: as §1

[3] = tested on: human IL-6; test: Inhibition of IL-6 production by stimulated human peripheral blood leukocytes in vitro (ELISA); conditions: Homo sapiens, Leukocyte, PBL, read-out: Percentage of inhibition of IL-6 production; for inhibition at 10 µM: compound 10 μM; for inhibition at 50 µM: compound 50 μM
In short: as §1

[4] = tested on: human IL-8; test: Inhibition of IL-8 production by stimulated human peripheral blood leukocytes in vitro (ELISA); conditions: Homo sapiens, Leukocyte, PBL, read-out: Percentage of inhibition of IL-8 production; for inhibition at 10 µM: compound 10 μM; for inhibition at 50 µM: compound 50 μM
In short: as §1

[5] = tested on: human peripheral blood mononuclear cells (PBMC); test: Human peripheral blood mononuclear cell proliferation in vitro ((3H)thymidine incorporation); conditions: Homo sapiens, PBMC, read-out: Percentage of inhibition of proliferation of stimulated PBMC; for inhibition at 10 µM: compound 10 μM; for inhibition at 50 µM: compound 50 μM
Method: Substances, used in in vitro experiments, were dissolved in dimethyl sulfoxide (DMSO) (Kemika, Croatia) at concentrations of 50 mM and 10 mM and were further diluted to the final concentrations of […] in 1 mL Dulbecco's modified Eagle medium (DMEM) supplemented with 1% heat inactivated fetal bovine serum (FBS), 1% glutamax, 50 U/ml penicillin, 50 μg/ml streptomycin and 2.5 μg/mL Fungizone (amphotericin B). Media and all media supplements were purchased from Gibco, Australia, except FBS that was from Sigma, USA.
Heparinized peripheral blood was obtained from healthy donors, and peripheral blood mononuclear cells (PBMC) were isolated by Histopaque 1077 (Sigma, USA) density centrifugation at 400 g for 30 minutes. Collected PBMC were centrifuged in plasma at 400 g/10 min, resuspended and washed in RPMI 1640 (Institute of Immunology, Croatia) by centrifugation.
Influence of substances at two different concentrations (50 μM and 10 μM) on proliferation of human peripheral blood mononuclear cells (PBMC) was assessed.
Heparinized peripheral blood was obtained from healthy donors, and PBMC were isolated by Histopaque 1077 (Sigma, USA) density centrifugation at 400 g for 30 minutes. 5×10^4 cells/well were cultured for 3 days in the RPMI medium as described above, in the presence (positive control) or absence (negative control) of stimulators [PHA (2.5 μg/mL) (Sigma, USA) or both PMA (10 ng/mL) (Sigma, USA) and ionomycin (500 ng/mL) (Calbiochem, USA)] and tested substances at 37° C. in 5% CO2 and 90% humidity. The cells were pulsed with 1 μCi of (^3H)thymidine (Amersham, USA) per well during the last 18 h of the cultures and were harvested on a 96-well filter (Packard Bioscience, USA) with a multiple cell harvester (Packard, USA). The incorporation of (^3H)thymidine in activated cells was measured by TopCount NXT (Packard, USA).
Inhibition of cell proliferation (as a percentage) was calculated using the following formula: % inhibition=(1−(^3H)thymidine incorporation expressed in counts per minute (cpm) in sample/(3H)thymidine incorporation expressed in cpm in positive control)×100 where “positive control” refers to stimulated samples not treated with substances.

[6] = tested on: A549; conditions: human, 24 h
Method: (§2) Anti-inflammatory activity of compounds, i.e. observed inhibition of cytokine production and inhibition of proliferation in vitro, is not a consequence of their cytotoxicity.
(§3) Measurement of the succinate dehydrogenase activity in living cells was performed in order to assess the cytotoxicity of compounds of the invention. Cells were cultured for 24 hours in RPMI medium as described above at 37° C., in the presence of the tested compounds at concentrations of 50 μM and 12.5 μM. Afterwards, MTT [3-(4,5-dimethylthiazole-2-yl)-2,5-diphenyl tetrazolium bromide] (Promega, USA) as detection reagent was added and incubated for 0.5-2 hours. The amount of produced MTT-Formazan was determined spectrophotometrically at 490 nm (Mosmann, J. Immunol. Methods, 1983, 65: 55-63).
(§4) Percentage of viable cells was calculated using the following formula: % viable cells=[…]

[7] = tested on: Hep G2; conditions: human, 24 h
Method: as §2, §3, §4

[8] = tested on: THP-1; conditions: human, 24 h
Method: as §2, §3, §4

Structure (SMILES) | inhibition at 10 µM ([1]; LPS stimulation) [%] | inhibition at 50 µM ([1]; LPS stimulation) [%] | inhibition at 10 µM ([1]; PMA stimulation) [%] | inhibition at 50 µM ([1]; PMA stimulation) [%] | inhibition at 10 µM ([1]; zymosan stimulation) [%] | inhibition at 50 µM ([1]; zymosan stimulation) [%] | inhibition at 10 µM ([2]; LPS stimulation) [%] | inhibition at 50 µM ([2]; LPS stimulation) [%] | inhibition at 10 µM ([2]; PMA stimulation) [%] | inhibition at 50 µM ([2]; PMA stimulation) [%] | inhibition at 10 µM ([2]; zymosan stimulation) [%] | inhibition at 50 µM ([2]; zymosan stimulation) [%] | inhibition at 10 µM ([3]; LPS stimulation) [%] | inhibition at 50 µM ([3]; LPS stimulation) [%] | inhibition at 10 µM ([3]; PMA stimulation) [%] | inhibition at 50 µM ([3]; PMA stimulation) [%] | inhibition at 10 µM ([3]; zymosan stimulation) [%] | inhibition at 50 µM ([3]; zymosan stimulation) [%] | inhibition at 10 µM ([4]; LPS stimulation) [%] | inhibition at 50 µM ([4]; LPS stimulation) [%] | also measured
CC[C@H]1OC(=O)[C@H](C)[C@@H](OC(=O)CCN(CC)CC)[C@H](C)[C@@H](O[C@@H]2O[C@H](C)C[C@H](N(C)C)[C@H]2O)[C@](C)(OC)C[C@@H](C)C(=O)[C@H](C)[C@@H](O)[C@]1(C)O [Example 5, 3-O-(3-Diethylamino-propionyl)-3-O-decladinosyl-6-O-methyl-erythromycin A] | 3 | 92 | 29 | 100 | 17 | 100 | 75 | 80 | 91 | 100 | 68 | 100 | 38 | 100 | 78 | 100 | 51 | 100 | 22 | 95 | inhibition at 10 µM ([4]; PMA stimulation): 48%; inhibition at 50 µM ([4]; PMA stimulation): 83%; inhibition at 10 µM ([4]; zymosan stimulation): 48%; inhibition at 50 µM ([4]; zymosan stimulation): 100%; inhibition at 10 µM ([5]; PHA stimulation): 99%; inhibition at 50 µM ([5]; PHA stimulation): 100%; inhibition at 10 µM ([5]; PMA + ionomycin stimulation): 90%; inhibition at 50 µM ([5]; PMA + ionomycin stimulation): 100%; Percentage of viable cells after treatment ([6]; 12.5 μM): 100%; Percentage of viable cells after treatment ([6]; 50 μM): 100%; Percentage of viable cells after treatment ([7]; 12.5 μM): >86%; Percentage of viable cells after treatment ([7]; 50 μM): 100%; Percentage of viable cells after treatment ([8]; 12.5 μM): 100%; Percentage of viable cells after treatment ([8]; 50 μM): >80%
CC[C@H]1OC(=O)[C@H](C)[C@@H](O[C@H]2C[C@@](C)(OC)[C@@H](O)[C@H](C)O2)[C@H](C)[C@@H](O[C@@H]2O[C@H](C)C[C@H](N(C)C)[C@H]2O)[C@](C)(O)C[C@@H](C)CN(C)[C@H](C)[C@@H](O)[C@]1(C)O [azithromycin, reference compound] | 36 | 20 | 0 | 0 | 6 | 64 | 28 | 48 | 0 | 0 | 20 | 75 | 15 | 40 | 0 | 0 | 20 | 75 | 0 | 0 | inhibition at 10 µM ([4]; PMA stimulation): 0%; inhibition at 50 µM ([4]; PMA stimulation): 0%; inhibition at 10 µM ([4]; zymosan stimulation): 0%; inhibition at 50 µM ([4]; zymosan stimulation): 0%; inhibition at 10 µM ([5]; PHA stimulation): 5%; inhibition at 50 µM ([5]; PHA stimulation): 29%; inhibition at 10 µM ([5]; PMA + ionomycin stimulation): 9%; inhibition at 50 µM ([5]; PMA + ionomycin stimulation): 31%; Percentage of viable cells after treatment ([6]; 12.5 μM): 100%; Percentage of viable cells after treatment ([6]; 50 μM): 100%; Percentage of viable cells after treatment ([7]; 12.5 μM): 100%; Percentage of viable cells after treatment ([7]; 50 μM): >95%; Percentage of viable cells after treatment ([8]; 12.5 μM): 100%; Percentage of viable cells after treatment ([8]; 50 μM): >95%
CC[C@H]1OC(=O)[C@H](C)[C@@H](O[C@H]2C[C@@](C)(OC)[C@@H](O)[C@H](C)O2)[C@H](C)[C@@H](O[C@@H]2O[C@H](C)C[C@H](N(C)C)[C@H]2O)[C@](C)(OC)C[C@@H](C)C(=O)[C@H](C)[C@@H](O)[C@]1(C)O [clarithromycin, reference compound] | 0 | 0 | 0 | 0 | 0 | 0 | 0 | 0 | 26 | 33 | 36 | 59 | 11 | 0 | 0 | 0 | 28 | 0 | 23 | 0 | inhibition at 10 µM ([4]; PMA stimulation): 33%; inhibition at 50 µM ([4]; PMA stimulation): 0%; inhibition at 10 µM ([4]; zymosan stimulation): 0%; inhibition at 50 µM ([4]; zymosan stimulation): 0%; inhibition at 10 µM ([5]; PHA stimulation): 0%; inhibition at 50 µM ([5]; PHA stimulation): 7%; inhibition at 10 µM ([5]; PMA + ionomycin stimulation): 9%; inhibition at 50 µM ([5]; PMA + ionomycin stimulation): 14%; Percentage of viable cells after treatment ([6]; 12.5 μM): 100%; Percentage of viable cells after treatment ([6]; 50 μM): 100%; Percentage of viable cells after treatment ([7]; 12.5 μM): 100%; Percentage of viable cells after treatment ([7]; 50 μM): 100%; Percentage of viable cells after treatment ([8]; 12.5 μM): 100%; Percentage of viable cells after treatment ([8]; 50 μM): >95%
